Results on six compounds are retold here after patent publication US9145351B2, “Azole derivatives, methods for producing the same, intermediate thereof, agro-horticultural agents” (KUREHA CORPORATION, priority 2009, dated 2015).

Like-named read-outs stand apart in the source and are kept apart here.

For one assay, the system named is Puccinia recondita. Kind of assay: Efficacy test against wheat brown rust, 100 mg/L and 10 mg/L (Experimental Example 2). The note with it: nine to 14 days after inoculation; for efficacy compared with compound (1): 10 mg/L sprayed at 1,000 L/ha; for pest or weed control at 100 µg/mL: Puccinia recondita, 336 h, 100 mg/L sprayed at 1,000 L/ha, read-out: Protective value. It is filed as in vivo. As for the experimental part: Onto a wheat plant (variety: NORIN No. 61) grown to the two-leaf phase using a square plastic pot (6 cm×6 cm), a wettable formulation such as Formulation Example 1 which was diluted and suspended in water at a certain concentration (100 mg/L and 10 mg/L) was sprayed at a rate of 1,000 L/ha. The sprayed leaves were air-dried, and inoculated with spore suspension of Puccinia recondita (adjusted at 200 spores/vision, […] was added at 60 ppm) by spraying, and kept at 25 degrees C. and a high humidity for 48 hours. Thereafter, the plant was kept in a greenhouse. Nine to 14 days after inoculation, the wheat brown rust lesion degree was investigated, and the protective value was calculated by the following equation. Protective value (%)=(1-lesion degree in sprayed plot/lesion degree in unsprayed plot)×100

The subject of another assay is Giberella fujikuroi. Kind of assay: Plate medium fungicidal assay, rice bakanae disease G.f (Experimental Example 5). It is filed as cell-based. As for the experimental part:
(§1) In this Experimental Example, the fungicidal effects of the inventive compounds on various phytopathogenic fungi for plants and hazardous microorganism for industrial materials were examined by the methods described below. Each inventive compound was dissolved in 2 ml of dimethyl sulfoxide. 0.6 ml of this solution was added to 60 nil of a PDA medium (potato dextrose agar medium) at about 60 degrees C., which was mixed thoroughly in a 100-ml conical flask, and poured into a dish, where it was solidified, thereby obtaining a plate medium containing the inventive compound at 50 mg/L and 5 mg/L. On the other hand, a subject microorganism previously cultured on a plate medium was cut out using a cork borer whose diameter was 4 mm, and inoculated to the test compound-containing plate medium described above. […] The growth degree of the microorganism on the test compound-containing plate medium thus observed was compared with the growth degree of the microorganism in the untreated group, and % mycelial growth inhibition was calculated by the following equation. R=100(dc−dt)/dc wherein R=% mycelial extension inhibition, dc=flora diameter in untreated plate, dt=flora diameter in treated plate. The results obtained as described above were evaluated as one of the 5 grades according to the following criteria. […] Rice bakanae disease (Giberella fujikuroi) G.f

Another assay has as its system Alternaria alternata. Briefly: Plate medium fungicidal assay, Alternaria blotch A.m (Experimental Example 5). It is filed as cell-based. The note with it: for inhibition at 5 µg/mL / inhibition at 50 µg/mL: Alternaria alternata. As for the experimental part:
as §1, with “Alternaria blotch (Alternaria alternata) A.m” for “Rice bakanae disease (Giberella fujikuroi) G.f”

For a further assay, the system named is Botritis cinerea. Kind of assay: Plate medium fungicidal assay, gray mold B.c (Experimental Example 5). It counts as cell-based. As for the experimental part: as §1, with “Gray mold (Botritis cinerea) B.c” for “Rice bakanae disease (Giberella fujikuroi) G.f”
The next assay deals with Rhynchosporium secalis. Briefly: Plate medium fungicidal assay, barley leaf blotch R.sec (Experimental Example 5). It counts as cell-based. The note with it: for inhibition at 5 µg/mL / inhibition at 50 µg/mL: Rhynchosporium secalis. As for the experimental part:
as §1, with “Barley leaf blotch (Rhynchosporium secalis) R.sec” for “Rice bakanae disease (Giberella fujikuroi) G.f”

Setting [1] is: plate medium containing compound at 5 mg/L, read-out: Growth inhibition grade, G.f.
[2] abbreviates: plate medium containing compound at 50 mg/L, read-out: Growth inhibition grade, G.f.
Where [3] appears, read: plate medium containing compound at 5 mg/L, read-out: Growth inhibition grade, A.m.
Where [4] appears, read: plate medium containing compound at 50 mg/L, read-out: Growth inhibition grade, A.m.
The mark [5] stands for this setting: plate medium containing compound at 5 mg/L, read-out: Growth inhibition grade, B.c.
Setting [6] is: plate medium containing compound at 50 mg/L, read-out: Growth inhibition grade, B.c.
Setting [7] is: plate medium containing compound at 5 mg/L, read-out: Growth inhibition grade, R.sec.
[8] abbreviates: plate medium containing compound at 50 mg/L, read-out: Growth inhibition grade, R.sec.
The mark [9] stands for this setting: plate medium, 5 mg/L, read-out: growth inhibition grade G.f.
Setting [10] is: plate medium, 50 mg/L, read-out: growth inhibition grade G.f.
The mark [11] stands for this setting: plate medium, 5 mg/L, read-out: growth inhibition grade A.m.
Setting [12] is: plate medium, 50 mg/L, read-out: growth inhibition grade A.m.
The mark [13] stands for this setting: plate medium, 5 mg/L, read-out: growth inhibition grade B.c.
Where [14] appears, read: plate medium, 50 mg/L, read-out: growth inhibition grade B.c.
Setting [15] is: plate medium, 5 mg/L, read-out: growth inhibition grade R.sec.
[16] abbreviates: plate medium, 50 mg/L, read-out: growth inhibition grade R.sec.
[17] abbreviates: plate medium containing compound at 5 mg/L.
The mark [18] stands for this setting: plate medium containing compound at 50 mg/L.

Broadly, the inhibition is the drop in the measured response relative to a control, in per cent.

In the case of `C[C@]1(CCl)CC[C@@H](Cc2cccc(Cl)c2)[C@]1(O)Cn1cncn1` (racemic) [Compound I-74, (1RS,2SR,5SR)-5-(3-chlorobenzyl)-2-chloromethyl-2-methyl-1-(1H-1,2,4-triazol-1-ylmethyl)cyclopentanol], in the assay with Puccinia recondita, the “efficacy compared with compound (1)” value is given as “higher efficacy than that of compound (1)”. For the same compound, in the assay on Puccinia recondita, the pest or weed control at 100 µg/mL is at least 90%. The inhibition at 5 µg/mL is above 80% in the assay on Giberella fujikuroi (setting [1]), 60 to 80% in the assay with Alternaria alternata (setting [3]), above 80% in the assay on Botritis cinerea (setting [5]) and above 80% in the assay with Rhynchosporium secalis (setting [7]). Further, the inhibition at 50 µg/mL in the assay with Giberella fujikuroi (setting [2]), in the assay with Alternaria alternata (setting [4]), in the assay on Botritis cinerea (setting [6]) and in the assay with Rhynchosporium secalis (setting [8]) was above 80% in each case.

Turning to `C[C@]1(CCl)CC[C@@H](Cc2ccc(F)cc2)[C@]1(O)Cn1cncn1` (racemic) [Compound I-77, (1RS,2SR,5SR)-2-chloromethyl-5-(4-fluorobenzyl)-2-methyl-1-(1H-1,2,4-triazol-1-ylmethyl)cyclopentanol], in the assay on Puccinia recondita, the “efficacy compared with compound (1)” value is “higher efficacy than that of compound (1)”. For the same compound, in the assay on Puccinia recondita, the pest or weed control at 100 µg/mL was at least 90%. The inhibition at 5 µg/mL with Giberella fujikuroi (setting [1]), in the assay with Giberella fujikuroi (setting [9]), in the assay on Alternaria alternata (setting [3]), in the assay on Alternaria alternata (setting [11]), with Botritis cinerea (setting [5]) and in the assay with Botritis cinerea (setting [13]) was above 80% throughout. For the same compound, the inhibition at 5 µg/mL with Rhynchosporium secalis (setting [7]) and with Rhynchosporium secalis (setting [15]) was above 80% in each case. Further, the inhibition at 50 µg/mL in the assay on Giberella fujikuroi (setting [2]), in the assay on Giberella fujikuroi (setting [10]), in the assay with Alternaria alternata (setting [4]), in the assay on Alternaria alternata (setting [12]), in the assay on Botritis cinerea (setting [6]) and in the assay with Botritis cinerea (setting [14]) was above 80% each time. Besides, the inhibition at 50 µg/mL with Rhynchosporium secalis (setting [8]) and in the assay on Rhynchosporium secalis (setting [16]) was above 80% in each case.

Regarding `C[C@@]1(CCl)CC[C@@H](Cc2ccc(Cl)cc2)[C@]1(O)Cn1cncn1` (racemic) [Compound I-101], the “efficacy compared with compound (1)” value with Puccinia recondita is “higher efficacy than that of compound (1)”. Moreover, the “Growth inhibition grade, G.f” value with Giberella fujikuroi (setting [17]) and in the assay with Giberella fujikuroi (setting [18]) was 5 (% Mycerial growth inhibition of 80% or higher) in each case. The “Growth inhibition grade, A.m” value in the assay on Alternaria alternata (setting [17]) and with Alternaria alternata (setting [18]) was 5 (% Mycerial growth inhibition of 80% or higher) each time. The “Growth inhibition grade, B.c” value in the assay on Botritis cinerea (setting [17]) and with Botritis cinerea (setting [18]) was 5 (% Mycerial growth inhibition of 80% or higher) each time. Besides, the “Growth inhibition grade, R.sec” value in the assay on Rhynchosporium secalis (setting [17]) and in the assay on Rhynchosporium secalis (setting [18]) was 5 (% Mycerial growth inhibition of 80% or higher) in each case.

As to `C[C@@]1(CCCl)CC[C@@H](Cc2ccc(Cl)cc2)[C@]1(O)Cn1cncn1` (racemic) [Compound I-104, (1RS,2SR,5SR)-5-(4-chlorobenzyl)-2-(2-chloroethyl)-2-methyl-1-(1H-1,2,4-triazol-1-ylmethyl)cyclopentanol], the “efficacy compared with compound (1)” value in the assay on Puccinia recondita is reported as “higher efficacy than that of compound (1)”. For the same compound, the pest or weed control at 100 µg/mL in the assay with Puccinia recondita was at least 90%. The inhibition at 5 µg/mL in the assay with Giberella fujikuroi (setting [9]), in the assay with Alternaria alternata (setting [11]), in the assay on Botritis cinerea (setting [13]) and in the assay on Rhynchosporium secalis (setting [15]) was above 80% throughout. In addition, the inhibition at 50 µg/mL in the assay on Giberella fujikuroi (setting [10]), in the assay on Alternaria alternata (setting [12]), in the assay on Botritis cinerea (setting [14]) and in the assay on Rhynchosporium secalis (setting [16]) was above 80% each time.

Turning to `CC(Cl)=C[C@]1(C)CC[C@@H](Cc2ccc(Cl)cc2)[C@]1(O)Cn1cncn1` (racemic) [Compound I-115, (1RS,2SR,5SR)-5-(4-chlorobenzyl)-2-(2-chloropropenyl)-2-methyl-1-(1H-1,2,4-triazol-1-ylmethyl)cyclopentanol], in the assay with Puccinia recondita, the pest or weed control at 100 µg/mL is at least 90%. Further, the inhibition at 5 µg/mL with Giberella fujikuroi (setting [9]), in the assay with Alternaria alternata (setting [11]), in the assay on Botritis cinerea (setting [13]) and with Rhynchosporium secalis (setting [15]) was above 80% throughout. The inhibition at 50 µg/mL in the assay on Giberella fujikuroi (setting [10]), with Alternaria alternata (setting [12]), in the assay with Botritis cinerea (setting [14]) and with Rhynchosporium secalis (setting [16]) was above 80% each time.

In the case of `C[C@]1(CCl)CC[C@@H](Cc2ccc(Cl)cc2)[C@]1(O)Cn1ccnc1` (racemic) [Compound I-244, (1RS,2SR,5SR)-5-(4-chlorobenzyl)-2-chloromethyl-2-methyl-1-imidazol-1-ylmethylcyclopentanol], the pest or weed control at 100 µg/mL in the assay with Puccinia recondita was at least 90%. The inhibition at 5 µg/mL was above 80% in the assay with Giberella fujikuroi (setting [9]), above 80% in the assay with Alternaria alternata (setting [11]), 60 to 80% with Botritis cinerea (setting [13]) and above 80% in the assay with Rhynchosporium secalis (setting [15]). Besides, the inhibition at 50 µg/mL with Giberella fujikuroi (setting [10]), in the assay on Alternaria alternata (setting [12]), with Botritis cinerea (setting [14]) and in the assay with Rhynchosporium secalis (setting [16]) was above 80% throughout.
